Assays:
[1] = test system: senescent IMR90 cells; assay: SA-β-gal staining of DNA damage-induced senescent IMR90 cells; format: cell-based, human; details: for SA-β-gal positive cells: UPCP 6 μM 5 days
Procedure: (§1) Fibroblasts from patients with HGPS were obtained from The Progeria Research Foundation Cell and Tissue Bank (http://www.progeriaresearch.org). The following fibroblasts were used: HGADFN003, HGADFN167, HGMDFN090 and HGFDFN168. Human dermal fibroblasts (GM00038 and AG09602) were obtained from Coriell Cell Repository (https://catalog.coriell.org). These cells were characterized by DNA fingerprinting and isozyme detection and were tested by a MycoBlue Mycoplasma Detector (Vazyme Biotech) to exclude mycoplasma contamination before the experiments. […] HGADFN003, HGADFN167, HGMDFN090, HGFDFN168, GM00038 and AG09602 were cultured in DMEM medium with 15% (v/v) fetal bovine serum (VivaCell). All cell lines were grown at 37 °C with 5% CO2 and IMR90, CRL-1474, HGADFN003, HGADFN167, HGMDFN090, HGFDFN168, GM00038 and AG09602 were cultured with 5% O2. For bleomycin-induced senescence, IMR90 cells were incubated with the culture medium containing 20 μg ml^–1 Bleomycin (Selleck, catalog no. S1214) for 2 h and analyzed 10 days later, or as otherwise indicated. For doxorubicin-induced senescence, IMR90 cells were treated twice with 100 nM Doxorubicin (Selleck, catalog no. S1208) with a 2 day interval and analyzed 10 days later, or as otherwise indicated. For ionizing radiation (IR)-induced senescence, IMR90 cells were exposed to 10 Gy Gamma rays, and analyzed 10 days later, or as otherwise indicated, the control IMR90 cells were mock irradiated. For etoposide-induced senescence, IMR90 cells incubated with the culture medium containing 10 μM Etoposide (Sigma, catalog no. E1383) for 48 h and analyzed 10 days later, or as otherwise indicated.
SA-β-gal staining was performed as previously described. Cells were fixed in 0.5% glutaraldehyde for 15 min at room temperature, washed three times with PBS (pH 6.0) containing 1 mM MgCl2 and exposed overnight 37 °C to containing 1 mg ml^–1 5-bromo-4-chloro-3-indolyl-β-D-galactopyranoside (MCE, catalog no. HY-15934), 0.12 mM potassium ferrocyanide (Sigma, catalog no. P3289), 0.12 mM potassium ferricyanide (Sigma, catalog no. P8131) and 1 mM MgCl2 PBS buffer (pH 6.0). Cells were washed three times with H2O and observed under a microscope (OLYMPUS CKX53). SA-β-gal positive cells were quantified by investigators who were blinded to the identity of the analyzed cell.

[2] = test system: HGPS cells; assay: Cellular uptake of FITC-modified UPCP; format: cell-based, human
Procedure: as §1, with “All cell lines were grown at 37 °C with 5% CO2 and IMR90, CRL-1474, HGADFN003, HGADFN167, HGMDFN090, HGFDFN168, GM00038 and AG09602 were cultured with 5% O2.” left out, “For etoposide-induced senescence, IMR90 cells incubated with the culture medium containing 10 μM Etoposide (Sigma, catalog no. E1383) for 48 h and analyzed 10 days later, or as otherwise indicated.” left out

[3] = test system: BUBR1 in NIH-3T3-progerin cells; assay: Western blot of BUBR1 in progerin-expressing NIH-3T3 cells; format: cell-based
Procedure: (§2) Western blot was performed as previously described. Cells were lysed in 1× Laemmli sample buffer after washing twice in cold PBS without calcium and magnesium. Protein concentrations were determined using the bicinchoninic acid (BCA) protein assay. Protein lysates were subjected to SDS–PAGE, transferred to 0.45-μm pore size hydrophobic PVDF transfer membrane (Merck Millipore), detected with the appropriate primary antibodies coupled with horseradish peroxidase-conjugated corresponding secondary antibodies, and visualized using enhanced chemiluminescence ECL reagent (GE Healthcare). The Tanon 5500 high-definition low-illumination CCD system (Tanon FLI Capture v.1.02) was used to capture chemiluminescent signals.

[4] = test system: HGADFN003 cells; assay: Ki67 immunofluorescence of HGADFN003 cells; format: cell-based, human; details: for Relative percentage of Ki67 positive cells: Fig. 5b, Mock 32, 39, 45, P=0.0148; for Ki67 positive cells: HGADFN003, Extended Data Fig. 10e
Procedure: (§3) Immunofluorescence was performed as described previously. Cells were plated on cover slips in 12-well plates, left overnight before the treatment. Cells were fixed in 1% formaldehyde in culture medium for 10 min at 37 °C and permeabilized with 0.2% Triton X-100 in PBS for 10 min at room temperature. Cells were washed twice in PBS and blocked for 1 h with 5% BSA in PBS and then incubated with primary antibodies at 4 °C overnight, washed three times in PBS and incubated with secondary antibodies for 1 h at room temperature. Cell nuclei were counterstained with a 500 nM concentration of 4,6-diamidino-2-phenylindole (DAPI) (Sigma). Images were acquired by a fluorescence microscope (OLYMPUS FV-1000, Carl Zeiss LSM880 or Leica DMi8) and analyzed with software NIS-Elements AR v.5.0.1 (Nikon), FLUOVIEW v.4.2b (OLYMPUS), ZEN v.2.3 SP1 (Carl Zeiss) and Leica Application Suite X v.3.6.0.24 (Leica). Cells were quantified by investigators who were blinded to the identity of the analyzed cell.

[5] = test system: senescent IMR90 cells; assay: Ki67 immunofluorescence of DNA damage-induced senescent IMR90 cells; format: cell-based, human; details: UPCP
Procedure: as §1, §3

[6] = test system: BUBR1 in IMR90-progerin cells; assay: Western blot of BUBR1 in progerin-expressing IMR90 cells; format: cell-based, human
Procedure: as §2

[7] = test system: BUBR1 mRNA; assay: BUBR1 mRNA stability assay with Actinomycin D; format: cell-based, human; details: HGADFN003 cells, UPCP together with Act D
Procedure: RNA preparation was performed as described. Total RNA was extracted using Trizol reagent (TaKaRa) following the manufacturer’s instructions. cDNA was generated with M-MLV reverse transcriptase (Promega, catalog no. M170B). Reverse transcription with PCR (RT-PCR) was performed with SYBR Green Real-Time PCR Master Mix (TaKaRa). RT-PCR was carried out on a QuantStudio 3 Real-Time-PCR Instrument (ABI). Data were analyzed and further processed in QuantStuido Design and Analysis Software and GraphPad Prism v.7. Fold change in gene expression over control samples was calculated using the 2^–ΔΔCt method, where β-actin Ct values were used as an internal control. The primer sequences for PCR, synthesized by Comate Bioscience, were as follows: […]

[8] = BLM (bleomycin 20 μg/mL 2 h), replicate 1
[9] = BLM (bleomycin 20 μg/mL 2 h), replicate 2
[10] = BLM (bleomycin 20 μg/mL 2 h), replicate 3
[11] = Dox (doxorubicin 100 nM twice), replicate 1
[12] = Dox (doxorubicin 100 nM twice), replicate 2
[13] = Dox (doxorubicin 100 nM twice), replicate 3
[14] = Eto (etoposide 10 μM 48 h), replicate 1
[15] = Eto (etoposide 10 μM 48 h), replicate 2
[16] = Eto (etoposide 10 μM 48 h), replicate 3

H-YGRKKRRQRRRYNLRSRTVLCGTCGQPADKASASGSGAQSPQNCSIM-OH (cysteines drawn unpaired) [UPCP, unique progerin C-terminal peptide]
SA-β-gal positive cells [1, 8]: 71.6418% | SA-β-gal positive cells [1, 9]: 81.25% | SA-β-gal positive cells [1, 10]: 74.0741% | SA-β-gal positive cells [1, 11]: 76.4706% | SA-β-gal positive cells [1, 12]: 84.6154% | SA-β-gal positive cells [1, 13]: 66.1539% | SA-β-gal positive cells [1, 14]: 80.4348% | SA-β-gal positive cells [1, 15]: 71.7949% | SA-β-gal positive cells [1, 16]: 70.9091% | rescue of phenotype of DNA damage-induced senescent cells ([1]; IMR90, 10 days after bleomycin, doxorubicin, ionizing radiation or etoposide): failed to rescue the progeria phenotype of these cells | SA-β-gal positive cells ([1]; IR (10 Gy), replicate 1): 77.4193% | SA-β-gal positive cells ([1]; IR (10 Gy), replicate 2): 75.5814% | SA-β-gal positive cells ([1]; IR (10 Gy), replicate 3): 70.4545% | time to cellular uptake [2]: ≤ 2 h | BUBR1 abundance [3]: upregulated BUBR1 | Relative percentage of Ki67 positive cells ([4]; HGADFN003, replicate 1): 54% | Relative percentage of Ki67 positive cells ([4]; HGADFN003, replicate 2): 62% | Relative percentage of Ki67 positive cells ([4]; HGADFN003, replicate 3): 68% | Ki67 expression (FTI-277/UPCP comparison, words) ([4]; HGADFN003): increasing expression of BUBR1, CyclinA2 and Ki67 | Ki67 positive cells ([4]; replicate 1): 65% | Ki67 positive cells ([4]; replicate 2): 55% | Ki67 positive cells ([4]; replicate 3): 72% | Ki67 positive staining ([4]; HGPS cells): increased Ki67 positive staining | Ki67 positive cells [5, 8]: 14.5% | Ki67 positive cells [5, 9]: 18.5% | Ki67 positive cells [5, 10]: 21.5% | Ki67 positive cells [5, 11]: 14% | Ki67 positive cells [5, 12]: 22% | Ki67 positive cells [5, 13]: 19% | Ki67 positive cells [5, 14]: 18.5% | Ki67 positive cells [5, 15]: 20% | Ki67 positive cells [5, 16]: 14.5% | Ki67 positive cells ([5]; IR (10 Gy), replicate 1): 19% | Ki67 positive cells ([5]; IR (10 Gy), replicate 2): 15.5% | Ki67 positive cells ([5]; IR (10 Gy), replicate 3): 17% | BUBR1 abundance [6]: upregulated BUBR1 | BUBR1 mRNA level with Act D [7]: mRNA levels of BUBR1 were significantly increased
